This passage reports MIC50, MIC90 and MIC range results from patent US12697325B2 (TENNOR THERAPEUTICS (SUZHOU) LIMITED, priority 2021, dated 2026).

The assay concerns clinical strains of Acinetobacter baumannii. Kind of assay: Minimum inhibitory concentration (CLSI M07), Example 1, clinical strains. The assay is classed as cell-based. Conditions: combination MIC = sum of the concentrations of the two compounds. How it is done: The minimum inhibitory concentration (MIC) was determined in accordance with the requirements of the Clinical and Laboratory Standards Institute (CLSI) M07 (for aerobic bacteria).
3.1 The compounds were diluted with water up to 100 times of the highest concentration tested.
The dilution steps are as follows: first dilute the compounds or antibiotics to 100 times of the highest final concentration tested, and then:
A 50 μL of sterile water and 50 μL of avibactam sodium mother liquid were added into the A row of the second 96-well plate, and 50 μL of water was added into each of the remaining wells. A 50 μL of liquid was pipetted from the A row and added into the B row; after being pipetted up and down to even, 50 μL of the solution was pipetted and added to the C row, and diluted in a 2-fold gradient in turn for a total of 6 times and then, 50 μL was removed from each well of the G row to obtain the compound solution diluted to a 2-fold gradient and then 4 μL was transferred to a 96-well test plate.
Aerobic bacteria: the strains were inoculated on MHA one day in advance and incubated overnight at 37° C. On the day of the assay, 5-6 single colonies were picked and suspended evenly in saline, and the bacterial concentration was adjusted to the turbidity of 0.5 McFarland standard (concentration is about 1×10^8 CFU/mL). The bacterial suspension was diluted 200 times with the corresponding liquid culture medium (Table 1), i.e., at a bacterial concentration of ~5×10^5 CFU/ml, then 192 μL was transferred to a 96-well round bottom plate to obtain the test plate. Then, the 96-well round bottom plate obtained above was placed into an incubator at 37° C. and 85% humidity to incubate for 20 h.

Usually MIC50 stands for the lowest concentration that inhibits either 50% of growth or 50% of the strains tested, depending on the study. The MIC90 is an inhibitory concentration at the 90% level, which refers to growth in some studies and to a panel of isolates in others. Turning to `CC1(C)[C@H](C(=O)[O][Na+])N2C(=O)C[C@H]2S1(=O)=O` [Sulbactam sodium, sulbactam sodium], the MIC range was 8 to 32 µg/mL. Also, the MIC50 (Acinetobacter baumannii, read-out: MIC50) came out at 32 µg/mL. Also, the MIC90 (Acinetobacter baumannii, read-out: MIC90) was determined as 32 µg/mL.
